According to publication PMC11995724, “Antibiotic target discovery by integrated phenotypic and activity-based profiling of electrophilic fragments” (Cell chemical biology, 2025):

assay: in vitro; conditions: human, hek293t cells

Point of comparison: `C=CC(=O)NC(C)(C)c1ccc(S(N)(=O)=O)cc1F` [2-P17, N-[2-(2-fluoro-4-sulfamoylphenyl)propan-2-yl]prop-2-enamide], viability at 48 h, 25 µM 58.6%. Against it:
- C=CC(=O)Nc1ccc(C(=O)N2C[C@H](O)C[C@H]2C(=O)OC)cc1 [2-O21, methyl (2S,4R)-4-hydroxy-1-[4-(prop-2-enamido)benzoyl]pyrrolidine-2-carboxylate] — higher, 145%
- C=CC(=O)NC1CC(=O)N(CC)C1 (stereo not shown) [2-O22, N-(1-ethyl-5-oxopyrrolidin-3-yl)prop-2-enamide] — higher, 91.7%
- C=CC(=O)NCCc1ccn(-c2ccc(F)cc2)n1 [2-P03, N-{2-[1-(4-fluorophenyl)-1H-pyrazol-3-yl]ethyl}prop-2-enamide] — higher, 70.4%
- C=CC(=O)N1CCC(C(=O)N(C)C(C)c2sc(CC)nc2C)CC1 (stereo not shown) [2-P04, N-[1-(2-ethyl-4-methyl-1,3-thiazol-5-yl)ethyl]-N-methyl-1-(prop-2-enoyl)piperidine-4-carboxamide] — higher, 95.1%
- C=CC(=O)NC(C)C1(S(C)(=O)=O)CC1 (stereo not shown) [2-P05, N-[1-(1-methanesulfonylcyclopropyl)ethyl]prop-2-enamide] — higher, 84.3%
- C=CC(=O)N1CCC(C(=O)N2CCCC(O)C2)(c2ccccc2)CC1 (stereo not shown) [2-P06, 1-[4-(3-hydroxypiperidine-1-carbonyl)-4-phenylpiperidin-1-yl]prop-2-en-1-one] — higher, 93.3%
- C=CC(=O)NCCN1C(=O)COc2ccccc21 [2-P07, N-[2-(3-oxo-3,4-dihydro-2H-1,4-benzoxazin-4-yl)ethyl]prop-2-enamide] — higher, 60.4%
- C=CC(=O)NCc1ccc(C(=O)N2CCC(c3nc(C)no3)C2)cc1 (stereo not shown) [2-P08, N-({4-[3-(3-methyl-1,2,4-oxadiazol-5-yl)pyrrolidine-1-carbonyl]phenyl}methyl)prop-2-enamide] — lower, 52.5%
- C=CC(=O)NCC1OCCc2sc(F)cc21 (stereo not shown) [2-P09, N-({2-fluoro-4H,6H,7H-thieno[3,2-c]pyran-4-yl}methyl)prop-2-enamide] — higher, 72.3%
- C=CC(=O)N1CCC(C(=O)N2CCCCC(SCC)C2)CC1 (stereo not shown) [2-P10, 1-{4-[3-(ethylsulfanyl)azepane-1-carbonyl]piperidin-1-yl}prop-2-en-1-one] — higher, 108%
- C=CC(=O)NCCCn1cnc2ccccc21 [2-P11, N-[3-(1H-1,3-benzodiazol-1-yl)propyl]prop-2-enamide] — higher, 62%
- C=CC(=O)N1CCC(C(=O)N(C)C2CCCc3c2cnn3C)CC1 (stereo not shown) [2-P12, N-methyl-N-(1-methyl-4,5,6,7-tetrahydro-1H-indazol-4-yl)-1-(prop-2-enoyl)piperidine-4-carboxamide] — higher, 78.2%
- C=CC(=O)NCc1nc(C2CC2)oc1C [2-P13, N-[(2-cyclopropyl-5-methyl-1,3-oxazol-4-yl)methyl]prop-2-enamide] — lower, 52.6%
- C=CC(=O)N1CCC(C(=O)NCC(O)c2c(F)cccc2F)CC1 (stereo not shown) [2-P14, N-[2-(2,6-difluorophenyl)-2-hydroxyethyl]-1-(prop-2-enoyl)piperidine-4-carboxamide] — higher, 102%
- C=CC(=O)NCC1(c2ccnn2C)CC1 [2-P15, N-{[1-(1-methyl-1H-pyrazol-5-yl)cyclopropyl]methyl}prop-2-enamide] — higher, 78.8%
- C=CC(=O)NCCC(=O)N1CCCN(c2cccnn2)CC1 [2-P16, N-{3-oxo-3-[4-(pyridazin-3-yl)-1,4-diazepan-1-yl]propyl}prop-2-enamide] — higher, 77.8%
- C=CC(=O)Nc1cc(NC(=O)[C@@H]2CSCN2C(=O)CC)ccc1F [2-P18, (4R)-N-[4-fluoro-3-(prop-2-enamido)phenyl]-3-propanoyl-1,3-thiazolidine-4-carboxamide] — higher, 91.2%
- C=CC(=O)NCc1ccc(S(=O)(=O)NC2CC2)cc1 [2-P19, N-{[4-(cyclopropylsulfamoyl)phenyl]methyl}prop-2-enamide] — higher, 62.3%
